Measured values as given in ChEMBL document CHEMBL1152679, “The lifespan-promoting effect of acetic acid and Reishi polysaccharide” (2009).
The source made the active and inactive calls. No cut-off for these calls is given here.

What follows are molecules tested on Caenorhabditis elegans (assay: Longevity-promoting activity in wild type Caenorhabditis elegans N2 assessed as increase in lifespan at 50 ppm by microscopic analysis).
Format: functional, organism-based

SMILES | Activity
CC(=O)O | Active
O=C(O)CC(O)(CC(=O)O)C(=O)O | inactive
O=C(O)c1ccccc1 | inactive
